Assays:
[1] = system: Human Leukocyte Lipoxygenase; assay: Human Leukocyte Lipoxygenase Assay (LDA-H); type: biochemical; details: Concentration 2.50 E -5 M
In short: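 Enzyme from acetone-pentane powder of human buffy-coat leukocytes, extracted in 0.1M Tris pH 7.4. Compound preincubated 5 min with enzyme, then reaction started with arachidonic or linoleic acid (100 μM or 1.0 μM) and followed at 234 nm (conjugated diene) at 24° C. IC50 is molar concentration halving control rate.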

[2] = biological target: T1, human leukocyte 5-lipoxygenase (Homo sapiens, UniProt P09917); assay: 5-lipoxygenase inhibition in human leukocytes, 5-HETE formation (5LOA; methods 5LOA1 and 5LOA2); type: cell-based; details: 5-HETE formation, human leukocytes; read-out: Concentration (M) for 50.0 % Inhibition, IC (5LOA)
T1 construct: endogenous in cells; host or cells: intact leukocytes isolated from human blood
T1 sequence (P09917 1-674): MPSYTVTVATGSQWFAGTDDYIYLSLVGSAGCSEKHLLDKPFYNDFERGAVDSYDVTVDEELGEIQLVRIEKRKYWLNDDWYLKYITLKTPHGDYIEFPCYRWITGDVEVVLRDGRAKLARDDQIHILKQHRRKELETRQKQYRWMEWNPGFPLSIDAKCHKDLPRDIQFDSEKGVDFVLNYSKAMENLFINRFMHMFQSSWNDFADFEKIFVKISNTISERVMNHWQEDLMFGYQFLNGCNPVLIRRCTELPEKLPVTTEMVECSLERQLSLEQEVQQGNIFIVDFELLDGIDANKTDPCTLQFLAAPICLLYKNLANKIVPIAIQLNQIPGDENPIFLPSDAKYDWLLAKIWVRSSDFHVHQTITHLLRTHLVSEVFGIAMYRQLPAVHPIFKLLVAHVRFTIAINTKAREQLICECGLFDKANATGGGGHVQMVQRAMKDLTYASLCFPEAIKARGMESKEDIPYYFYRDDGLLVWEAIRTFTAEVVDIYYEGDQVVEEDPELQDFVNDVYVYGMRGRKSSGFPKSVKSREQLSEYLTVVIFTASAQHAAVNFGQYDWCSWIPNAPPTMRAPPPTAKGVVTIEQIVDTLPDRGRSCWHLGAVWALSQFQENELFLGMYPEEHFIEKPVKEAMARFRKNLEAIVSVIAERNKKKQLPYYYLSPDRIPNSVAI
Source text: To Evaluate the Effect of Each Compounds as a 5-Lipoxygenase Inhibitor in Comparison to Standard Reference Agents in Human Leukocytes (5LOA1)
The purpose of this assay is to evaluate the activity of each compound as an inhibitor of human leukocyte 5-lipoxygenase.
Arachidonic acid and calcium ionophore A23187 are obtained from Sigma (St. Louis, MO). Silica gel plates, GF are obtained from Analtech (Newark, DE). Arachidonic acid, (1-^14 C) and 5-HETE (^3 H), 5 (S)-hydroxy-6-trans,8,11,14-cis eicosatetraenoic acid, are obtained from New England Nuclear (Boston, MA). Six percent Dextran-70 in 0.9% NaCl is obtained from Cutter Labs (Berkeley, CA).
Preparation of Leukocytes
Fresh blood from normal adult men who had not received any drugs for at least the previous five days is obtained by the Community Research Clinic (WL/PD) using venipuncture and collected into heparinized vacuotainer tubes. To every 100 ml of pooled blood is added 25 ml of dextran solution (6% dextran -70 in 0.9% sodium chloride containing 3% dextrose) and this is mixed gently in a plastic cylinder. The mixture is left to stand at room temperature for at least 90 minutes. The upper layer which is rich in leukocytes and platelets is then carefully decanted into 50 ml plastic tubes and centrifuged at about 100×g for eight minutes in an IEC centrifuge and rotor number 269 (about 600 rpm). The supernatant fluid is discarded and the pellet is resuspended in 10 ml of 0.87% ammonium chloride for exactly two minutes. This procedure is to lyse completely contaminating red blood cells. Leukocytes are then separated by centrifugation for ten minutes. The pellet is washed three times by suspension in 20 ml PBS (sodium chloride, 7.1 g; Na2 HPO4, 1.15 g; KH2 PO4, 0.2 g, and KCl, 0.2 g/L) and centrifuged as before. The final pellet is suspended in PBS containing 0.87 mM CaCl2. Viability of the cells is then checked using trypan blue exclusion method and is found to be over 90%.
5-Lipoxygenase Enzyme Assay
Leukocyte cells in suspension (0.98 ml) are incubated with or without test compounds for five minutes at 37° C. in a shaking water bath. At this time a 17 μl mixture is prepared per 1 ml of cell suspension: 100 mM arachidonic acid, 1 μl, 0.05 μCi ^14 C-arachidonic acid in 5 μl; 1 mM calcium ionophore A23187, 10 μl (1). This mixture is added and the incubation continued for five minutes. The reaction is stopped by adding four volumes of absolute ethanol and the mixture is kept in ice for 30 minutes. The floculated precipitate is separated by centrifugation at about 37,000×g for 20 minutes (Beckman Instruments rotor number 40). The alcohol extract is taken to dryness under a stream of nitrogen and the residue is dissolved in 100-200 μl absolute ethanol. At the time any turbidity is removed by centrifugation. An aliquot (25-50 μl) is applied onto 20×20 cm silica gel TLC plate and developed using the following solvent system: diethyl ether, petroleum ether (2040° C.), acetic acid (50:50:1 v/v). Zones of 1 cm apart are scraped from the TLC plate and transferred to mini-vials. Methanol (0.5 ml) is added to dissolve the radioactivity adsorbed to the silica gel and scintillation fluid (H. P., Beckman), 5 ml is then added and vials are counted in a liquid scintillation counter. A sample of ^3 H-5-HETE is applied and used for the identification of the formed 5-HETE.
Total radioactivity in the test as well as the control samples are normalized and the amount of 5-HETE present is calculated accordingly.
IC50 values are defined as the concentrations of test agents which caused a 50% inhibition of the formation of 5-HETE as compared to control and are determined by inspection of the concentration-response curves.
5-Lipoxygenase Assay Using Isolated Human Leukocytes (5LOA2)
The formation of 5-HETE in human leukocytes is considered a measure of 5-lipoxygenase activity. The protocol is described in the following. […]

Structure (SMILES): O=C(Nc1ccc(CCc2ccc(O)c(O)c2)cc1)C1Oc2c(n(-c3ccccc3)c3ccc(O)cc23)C1=O (centres unmarked) [Example 163, 2H-Furo[3,2-b]indole-2-carboxamide, N-[4-[2-(3,4-dihydroxyphenyl)ethyl]phenyl]-3,4-dihydro-7-hydroxy-3-oxo-4-phenyl]
- % Inhibition (LDAH) [1]: 0.0%
- IC50 [2]: 5e-07 M

Source: patent US4868195A, “Novel enolamides, pharmaceutical compositions and methods of use thereof for activity as modulators of the arachidonic acid cascade” (Warner-Lambert Company, priority 1988, dated 1989)
